Data published in patent US20080227710A1, “Use of Conjugates of Doxorubicin with Lactosaminated Albumin” (priority 2005, published 2008).

Assay: DOXO concentrations in HCCs, heart and intestine of rats with DENA-induced HCCs
Assay type: in vivo, rat
Conditions: 4 h after i.v. injection, DOXO measured as free drug, mean ± standard error
Experimental: HCCs were induced by diethyInitrosamine (DENA) given in the drinking water (100 mg/l) for 8 weeks. […] Compounds were injected in the dorsal vein of penis, in a volume of 10 μl/10 g body weight, under isoflurane anaesthesia. For each compound four rats were used. Four hours after the injection the animals were killed under isoflurane anaesthesia. Organs were rapidly removed and frozen and neoplastic nodules were accurately dissected from the surrounding liver. A part of each tumor nodule was frozen; the other part was fixed in 10% formalin and processed for histology. Samples of frozen organs and nodules were used for radioactivity count and determination of DOXO levels. DOXO was measured according to Bots A M, et al. (Analysis of adriamycin . . . J Chromatogr 1983; 272: 421-427), with modifications (Di Stefano G, et al. Doxorubicin coupled to lactosaminated . . . Dig Liver Dis 2003; 35: 428-433).

SMILES: COc1cccc2c1C(=O)c1c(O)c3c(c(O)c1C2=O)C[C@@](O)(C(=O)CO)C[C@@H]3O[C@H]1C[C@H](N)[C@H](O)[C@H](C)O1 [DOXO, doxorubicin]
- DOXO concentration, nmoles DOXO/g, Heart (heart): 4.7 ± 0.3 nmoles DOXO/g
- DOXO concentration, nmoles DOXO/g, Intestine (intestine): 4.2 ± 0.6 nmoles DOXO/g
- DOXO concentration, nmoles DOXO/g, MD HCCs (moderately differentiated HCCs): 3.1 ± 0.4 nmoles DOXO/g
- DOXO concentration, nmoles DOXO/g, PD HCCs (poorly differentiated HCCs): 3.6 ± 0.4 nmoles DOXO/g
- DOXO concentration, nmoles DOXO/g, WD HCCs (well differentiated HCCs): 3.4 ± 0.6 nmoles DOXO/g
